From patent EP4778929A1, “NOVEL TYPE I TOPOISOMERASE INHIBITOR, AND PREPARATION METHOD THEREFOR AND USE THEREOF” (priority 2023, dated 2025) come the findings set out here.

For orientation: bioavailability means the share of a dose that reaches the circulation, judged against a reference dose that is usually intravenous. High values mean good availability, low ones poor availability. A word on the AUC(0-t): it is exposure summed from dosing to a finite time, without extrapolation to infinity. For orientation: Cmax means the highest concentration seen after dosing. One may read the clearance as the volume of plasma or blood freed of the substance per unit of time. The low end stands for a low capacity for elimination, the high end for a high capacity for elimination. As a reminder, the half-life is the time needed for the level to fall by half in the phase considered. Low readings indicate rapid decline, high ones slow decline. As usually defined, the Tmax is the time from dosing to the highest level. A word on the IC50: it is the concentration at which inhibition is half-maximal.

Series [1] deals with Human colon cancer HCT116 cells. As to the kind of experiment: Subcutaneous xenograft model of human colon cancer HCT-116 cells. Type of series: in vivo, BALB/c nude mice. Particulars: day 21 post-treatment, 5 mg/kg, IV, BIW×3W. On the procedure:
Test Example 4. Pharmacodynamic Evaluation of Compound 2, Compound 250, and Compound 253 in a Subcutaneous Xenograft Model of Human Colon Cancer HCT-116 Cells in BALB/c Female Nude Mice
Human colon cancer HCT116 cells were cultured in vitro as monolayers in McCoys 5a medium supplemented with 10% fetal bovine serum and 1% penicillin/streptomycin/amphotericin B at 37 °C in a 5% CO2 incubator. Cells were routinely passaged twice a week using trypsin-EDTA digestion. When cells reached 80%-90% confluence and the required cell number was achieved, cells were harvested. HCT116 cells (0.1 mL, 5×10^6 cells) were subcutaneously inoculated into the right dorsal region near the upper forelimb of each mouse (BALB/c nude mice, female, 6-8 weeks old). Treatment was initiated when the average tumor volume reached approximately 158 mm^3. Tumor volume was measured twice weekly. At the end of the experiment, the tumor growth inhibition rate (TGI) was calculated as: TGI (%) = [1 - (average tumor volume at the end of treatment in a particular group - average tumor volume at the start of treatment in that group) / (average tumor volume at the end of treatment in the vehicle control group - average tumor volume at the start of treatment in the vehicle control group)] × 100%.
(§1) Experimental Groups and Dosing Regimen:
• 1, Vehicle control group • 2, Compound 2, 5 mg/kg, IV, BIW×3W • 3, Compound 250, 5 mg/kg, IV, BIW×3W • 4, Compound 253, 5 mg/kg, IV, BIW×3W
Background: Xenograft models place foreign cells or tissue in a host animal.

A short description of a further series: in vivo. The note with it: male, CD-1, mouse. On the procedure: Test Example 3. Pharmacokinetic Study for Determining Compound Concentrations in Mice by LC-MS/MS
Principle: LC-MS/MS is used to quantify the plasma concentrations of the test article at successive time points, generating an in-vivo pharmacokinetic profile.
Procedure: The test compound was dissolved in DMSO to prepare a 10 mg/mL stock solution. This stock was further diluted to 1 mg/mL with a vehicle consisting of 10 % DMSO + 10 % Solutol HS-15 + 80 % saline. Male CD-1 mice (JH Laboratory Animal Co., LTD) were employed; six animals were assigned per compound group. […] Serial blood samples (~50 µL whole blood, K2EDTA anticoagulant) were collected at 0.083, 0.25, 0.5, 1, 2, 4, 8 and 24 h (three mice per time point in a crossover design). Blood was centrifuged at 6 000 g for 5 min at 4 °C; plasma was harvested and stored at -70 °C until analysis. Plasma drug concentrations were determined by LC-MS/MS.
Calibration Curve and QC Preparation: Working solutions were prepared by dilution with MeOH:H2O (1:1). For each calibration or QC level, 3 µL of working solution was spiked into 57 µL of blank mouse plasma.
Sample Processing: To 30 µL of plasma was added 200 µL of methanol containing the internal standard (propranolol, 40 ng mL^-1). After vortex-mixing for 1 min, the mixture was centrifuged at 12 000 rpm for 10 min. A 100 µL aliquot of the supernatant was transferred to a clean plate for injection.
Pharmacokinetic Analysis: Concentration-time data were analyzed with WinNonlin 8.2 using a non-compartmental approach to derive PK parameters including Cmax, Tmax, AUC and terminal elimination half-life (t1/2). AUC was calculated by the linear-up/log-down trapezoidal method. Table 3. Pk parameters of compounds

The next series concerns HCT116 cells. As to the kind of experiment: Inhibition of cell proliferation by CTG (CellTiter-Glo) luminescence assay. Type of series: cell-based. The note with it: Homo sapiens, HCT-116; 72 h incubation, CellTiter-Glo; read-out: HCT116, IC50. Put shortly:
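Nine-point 1:3 dilutions applied to HCT116 cells (2 000/well, McCoy's 5a + 10 % FBS) for 72 h at 37 °C, final DMSO 0.25 %. Viability read by CellTiter-Glo luminescence; % inhibition versus DMSO controls fitted to four-parameter logistic for IC50.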

Series [2] concerns Human colon cancer CR00090 cells. As to the kind of experiment: CR00090 human colon cancer model (subcutaneous). Type of series: in vivo, NPSG mice. The note with it: day 28 post-treatment, 5 mg/kg, IV, BIW×4W. As to the method:
Test Example 5: Pharmacodynamic Evaluation of Compound 117, Compound 250, and Compound 253 in the CR00090 Human Colon Cancer Model
Human colon cancer CR00090 cells were thawed, counted, and mixed with Matrigel at a 1:1 ratio. Then, 0.1 mL (5×10^5 cells) of CR00090 cells were subcutaneously inoculated into the right dorsal region near the upper forelimb of each mouse (NPSG mice, female, 6-8 weeks old). Treatment was initiated when the average tumor volume reached approximately 84 mm^3. Tumor volume was measured twice weekly. At the end of the experiment, the tumor growth inhibition rate (TGI) was calculated as: TGI (%) = [1 - (average tumor volume at the end of treatment in a particular group - average tumor volume at the start of treatment in that group) / (average tumor volume at the end of treatment in the vehicle control group - average tumor volume at the start of treatment in the vehicle control group)] × 100%.
as §1
• 1, Vehicle control group • 2, Compound 117, 5 mg/kg, IV, BIW×4W • 3, Compound 250, 5 mg/kg, IV, BIW×4W • 4, Compound 253, 5 mg/kg, IV, BIW×4W

Consider `CC[C@@]1(O)C(=O)OCc2c1cc1n(c2=O)Cc2c-1c(=O)c1cc(F)ccc1n2[C@@H]1CCN(C)C1` [Example 250, (S)-4-ethyl-8-fluoro-4-hydroxy-11-((R)-1-methylpyrrolidin-3-yl)-1,12-dihydro-14H-pyrano[3',4':6,7]indolizino[2,1-b] quinoline-3,6,14(4H,11H)-trione], for which the TGI in series [1] was 83.1%. The molecule further returned a tumor volume in series [1] (vehicle control 1146 mm^3) of 326 mm^3. Also, in “in vivo”, the bioavailability worked out at 35.9%. In “in vivo” (iv, 2 mg/kg), this molecule had an exposure AUC(0-t) of 543 ng·h/mL, a Cmax of 1210 ng/mL, a clearance of 62.9 mL/min/kg and a half-life of 17.9 min. In “in vivo” (po, 20 mg/kg), the AUC(0-t) was 1930 ng·h/mL, the Cmax came to 1120 ng/mL, the Tmax was 30 min and the half-life is 231 min. The IC50 in the series with HCT116 cells is below 20 nM. The TGI in series [2] was found to be 80.0%. The molecule also displayed a tumor volume in series [2] (vehicle control 1093 mm^3) of 286 mm^3.
